ChEMBL document CHEMBL1133590, “Study on selectin blocker. 8. Lead discovery of a non-sugar antagonist using a 3D-pharmacophore model” (J Med Chem, 2000)

Biological target: T1, E-selectin (Mus musculus, UniProt Q00690)
T1 sequence (Q00690 whole entry): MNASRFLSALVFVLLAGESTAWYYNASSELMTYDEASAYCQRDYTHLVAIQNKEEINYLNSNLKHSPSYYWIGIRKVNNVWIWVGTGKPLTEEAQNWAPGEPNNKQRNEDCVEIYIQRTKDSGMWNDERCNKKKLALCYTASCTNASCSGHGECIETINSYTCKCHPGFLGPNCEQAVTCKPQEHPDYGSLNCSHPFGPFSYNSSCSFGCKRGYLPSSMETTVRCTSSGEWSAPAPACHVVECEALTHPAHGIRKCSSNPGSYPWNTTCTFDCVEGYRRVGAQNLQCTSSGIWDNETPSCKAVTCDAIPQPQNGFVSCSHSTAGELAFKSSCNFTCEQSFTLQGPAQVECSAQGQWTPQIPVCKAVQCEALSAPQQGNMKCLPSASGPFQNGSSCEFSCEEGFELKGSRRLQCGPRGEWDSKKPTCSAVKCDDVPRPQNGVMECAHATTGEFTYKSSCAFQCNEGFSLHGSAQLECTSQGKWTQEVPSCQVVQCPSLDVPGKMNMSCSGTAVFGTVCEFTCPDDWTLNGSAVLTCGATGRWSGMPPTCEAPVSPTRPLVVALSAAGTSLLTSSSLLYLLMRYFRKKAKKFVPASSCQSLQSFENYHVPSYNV
Assay: Evaluated for the inhibitory activity against Selectin E

Structure (SMILES)	IC50 [µM]
CCCCCCCCCCCCCCCCCC(=O)Nc1ccc(C(=O)Nc2cc(C(=O)O)ccc2Oc2cccc(C(=O)O)c2)cc1	86
CC(=O)N[C@H]1[C@H]([C@H](O)[C@H](O)CO)O[C@@](O[C@H]2[C@@H](O)[C@@H](CO)O[C@@H](O[C@@H]([C@H](O[C@@H]3O[C@@H](C)[C@@H](O)[C@@H](O)[C@@H]3O)[C@H](C=O)NC(C)=O)[C@H](O)CO)[C@@H]2O)(C(=O)O)C[C@@H]1O [SIALYL LEWIS X]	580
CCCCCCCCCCCCCCCCCC(=O)Nc1ccc(C(=O)Nc2cc(C(=O)O)ccc2Oc2cc(C(=O)O)cc(C(=O)O)c2)cc1	> 500

Now from value to compound:

IC50 [µM]	Structure (SMILES)
13	CCCCCCCCCCCCCCC(CCCCCCCCCCCCCC)C(=O)N[C@@H](CO[C@@H]1OC(C)[C@@H](O)[C@H](O)C1O)C(=O)N[C@H](CCC(=O)O)C(=O)NC (stereo not given in full)
1200	CCCCCCCCCCCCCCCCCC(=O)Nc1ccc(C(=O)CC(=O)Nc2cc(C(=O)O)ccc2Oc2cc(C(=O)O)cc(C(=O)O)c2)cc1
